Laboratory results reported in PMC8199036, “Improved Tumor-Targeting with Peptidomimetic Analogs of Minigastrin ^177Lu-PP-F11N” (Cancers, 2021).
pIC50: −log10 of the molar value. Starred links: 1 amine or outer side, 2 acyl side, 3 side chain; linkers in the order of their positions; H or OH if unused. Non-standard residues stand in square brackets, D forms with d. Residues, ends and D or L forms follow the SMILES beside them. *: point of attachment. DOTA = O=C(O)CN1CCN(CC(=O)O)CCN(CC(=O)*)CCN(CC(=O)O)CC1; X1 = C[C@@H](C(=O)[*:2])n1cc([C@@H](CCC(=O)O)N[*:1])nn1; X2 = O=C(Cn1cc([C@H](Cc2ccc(O)cc2)N[*:1])nn1)[*:2]; Nle = CCCC[C@H](N)C(=O)O

Key:
[1] = test system: xenografts of A431-CCK2R cells; test: biodistribution in mice with CCK2R-positive xenografts; format: in vivo, female CD1-nu mice
Description: Procedures for biodistribution studies with ^177Lu-labeled conjugates (10 pmol, 100 µL, 0.1 µM in PBS, 0.5 MBq, 1 µg/kg) in female CD1-nu mice with xenografts of A431-CCK2R cells at 1, 4, and 24 h p.i., as well as blocking experiments at 4 h p.i. with a 6000-fold excess of minigastrin have been reported previously and were followed without modifications. Statistical analysis was performed via GraphPad Prism using two-sided analysis of variance. n = 4 animals per group.

A431-CCK2R cells [2] = test: cell binding and internalization; format: cell-based; details: 177Lu-labeled, % of applied radioactivity
[3] = logD pH 7.4 determination; format: physicochemical; details: 177Lu-labeled
Description: (§1) Procedures for (radio)metal labeling of the DOTA–minigastrin conjugates with ^177Lu^3+ and ^natLu^3+, cell culturing of A431-CCK2R cells, cell internalization (including blocking experiments with excess minigastrin (H-LE5AYGWMDF-NH2)), competition binding assays (IC50), stability measurements in human blood plasma, and determinations of logDpH 7.4 have been reported previously for the in vitro evaluation of TZMGs and were applied to NMGs without alteration.

A431-CCK2R cells [4] = test: cell binding and internalization; format: cell-based; details: for internalized blocked / membrane-bound blocked: 6000-fold excess of minigastrin; for internalized specific / membrane-bound specific: total minus blocked
Description: as §1
(§2) Figure 2 (A) Total internalization of ^177Lu-labeled conjugates (2 nM, 5 kBq) in […] cells over 4 h (n = 3–4 in triplicate). […] Data points show mean value ± standard deviation.
Cell Internalization Data
Cell internalization was determined and analyzed as described in Grob, et al., J Med Chem, 2020.1 Specific values result from values of total internalization or cell binding minus values obtained in presence of a 6000-fold excess of minigas- […]
Incubation time membrane-bound internalized total blocked specific total blocked specific
Table S3: Complete Internalization Data for 177Lu-labeled NMG 1 as mean ± standard deviation from n = 3–4 in triplicates.
Table S4: Complete Internalization Data for 177Lu-labeled NMG 2 as mean ± standard deviation from n = 3–4 in triplicates.
Table S5: Complete Internalization Data for 177Lu-labeled NMG 3 as mean ± standard deviation from n = 3–4 in triplicates.

CCK2R = biological target: T1, CCK2R (Homo sapiens, UniProt P32239); test: competition binding assay (receptor displacement of 177Lu-PP-F11N); details: read-out: IC50 (95% CI); 175Lu-labeled; displacement of 177Lu-PP-F11N (2 nM) on A431-CCK2R cells
T1 construct: expressed in transfected cells; host or cells: A431-CCK2R cells
T1 sequence (P32239 1-447): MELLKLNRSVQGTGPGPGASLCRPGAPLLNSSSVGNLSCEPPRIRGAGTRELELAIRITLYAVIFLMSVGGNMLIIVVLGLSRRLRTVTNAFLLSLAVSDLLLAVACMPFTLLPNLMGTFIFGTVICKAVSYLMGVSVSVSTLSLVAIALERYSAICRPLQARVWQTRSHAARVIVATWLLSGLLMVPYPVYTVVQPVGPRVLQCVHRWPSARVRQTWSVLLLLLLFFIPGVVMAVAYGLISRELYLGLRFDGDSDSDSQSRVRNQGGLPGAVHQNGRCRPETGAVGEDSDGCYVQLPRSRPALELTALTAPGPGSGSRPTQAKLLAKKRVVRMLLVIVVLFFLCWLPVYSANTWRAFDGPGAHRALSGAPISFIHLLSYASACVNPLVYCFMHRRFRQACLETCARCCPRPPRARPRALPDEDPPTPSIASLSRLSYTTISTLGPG
Description: as §1, §2

[5] = test system: A431-CCK2R cells xenografts; test: SPECT/CT imaging of mice with tumor xenografts; format: in vivo, female CD1-nu mice; details: 24 h p.i.
Description: 10–14 days prior to the experiment, 6-week-old female CD1-nu mice were inoculated with 5 × 10^6 A431-CCK2R cells (0.1 mL, 5 × 10^7 cells/mL in PBS) subcutaneously in both shoulders. The mice were randomly assigned to groups of two animals. On the day of the experiment, ^177Lu-labeled conjugates (200 pmol, 100 µL, 2 µM in PBS, 20 MBq, 20 µg/kg) were injected via the tail vein. The mice were kept with food and water ad libitum. SPECT scans of 40 min (1 and 4 h p.i., frame duration 60 sec) or 60 min (24 h p.i., frame duration 80 sec) were acquired after an initial CT scan of 7.5 min (CT tube voltage 55 kV, CT tube current 145 µA) with a multi-pinhole NanoSPECT/CTplus (Bioscan Inc., […], and Mediso, Hungary). For the duration of the SPECT/CT scans, mice were kept under anesthesia with a mixture of isoflurane (1.5–2.5%) and oxygen and warmed by a constant air flow of 37 °C. The images were reconstructed with HiSPECT and analyzed in VivoQuant. A post-reconstruction filter was applied (Gauss, full width at half max, 1 mm) to the SPECT images, and the scale was adjusted to visualize important organs and tissues (0.001–0.004 kBq/voxel). n = 2 animals per group.

CCCC[C@H](NC(=O)[C@H](Cc1c[nH]c2ccccc12)NC(=O)Cn1cc([C@H](Cc2ccc(O)cc2)NC(=O)[C@H](C)n2cc([C@@H](CCC(=O)O)NC(=O)[C@@H](CCC(=O)O)NC(=O)[C@@H](CCC(=O)O)NC(=O)[C@@H](CCC(=O)O)NC(=O)[C@@H](CCC(=O)O)NC(=O)[C@@H](CCC(=O)O)NC(=O)CN3CCN(CC(=O)O)CCN(CC(=O)O)CCN(CC(=O)O)CC3)nn2)nn1)C(=O)N[C@@H](CC(=O)O)C(=O)N[C@@H](Cc1ccccc1)C(N)=O [NMG 3, DOTA-(DGlu)6 -Ψ[Tz]-Ala-Tyr-Ψ[Tz]-Gly-Trp-Nle-Asp-Phe-NH2] ({DOTA}-[dE][dE][dE][dE][dE][X1][X2]W[Nle]DF-NH2)
Tumor washout: tumor uptake relative to 1h ([1]; 4 h): 73%
Tumor washout: tumor uptake relative to 1h ([1]; 24 h): 56%
Blood uptake ([1]; female, CD1-nu, mouse, in vivo, 10 pmol, 1 h): < 0.5 % i.A./g
Internalization 4 h Total (%) (A431-CCK2R cells [2]): 76.5 ± 2.8%
logDpH 7.4 [3]: -3.95 ± 0.42
internalized total (A431-CCK2R cells [4]; 0.5 h): 33.9 ± 1.1%
membrane-bound total (A431-CCK2R cells [4]; 0.5 h): 7.7 ± 0.8%
internalized blocked (A431-CCK2R cells [4]; 0.5 h): 0.4 ± 0.3%
membrane-bound blocked (A431-CCK2R cells [4]; 0.5 h): 0.9 ± 0.3%
internalized specific (A431-CCK2R cells [4]; 0.5 h): 33.5 ± 1.1%
membrane-bound specific (A431-CCK2R cells [4]; 0.5 h): 6.8 ± 1.0%
internalized total (A431-CCK2R cells [4]; 1 h): 57.2 ± 2.3%
membrane-bound total (A431-CCK2R cells [4]; 1 h): 6.4 ± 0.3%
internalized blocked (A431-CCK2R cells [4]; 1 h): 0.7 ± 0.3%
membrane-bound blocked (A431-CCK2R cells [4]; 1 h): 0.9 ± 0.3%
internalized specific (A431-CCK2R cells [4]; 1 h): 56.5 ± 2.1%
membrane-bound specific (A431-CCK2R cells [4]; 1 h): 5.5 ± 0.4%
internalized total (A431-CCK2R cells [4]; 2 h): 73.4 ± 1.3%
membrane-bound total (A431-CCK2R cells [4]; 2 h): 4.0 ± 0.6%
internalized blocked (A431-CCK2R cells [4]; 2 h): 5.5 ± 3.9%
membrane-bound blocked (A431-CCK2R cells [4]; 2 h): 1.8 ± 1.3%
internalized specific (A431-CCK2R cells [4]; 2 h): 67.9 ± 3.4%
membrane-bound specific (A431-CCK2R cells [4]; 2 h): 2.2 ± 1.3%
membrane-bound total (A431-CCK2R cells [4]; 4 h): 3.2 ± 0.3%
internalized blocked (A431-CCK2R cells [4]; 4 h): 18.4 ± 4.3%
membrane-bound blocked (A431-CCK2R cells [4]; 4 h): 2.4 ± 0.6%
internalized specific (A431-CCK2R cells [4]; 4 h): 57.7 ± 4.2%
membrane-bound specific (A431-CCK2R cells [4]; 4 h): 0.8 ± 0.6%
cell-associated radioactivity (A431-CCK2R cells [4]; after 4 h of incubation): ~80%
pIC50 (CCK2R): 8.70
visualization of tumor xenografts by SPECT/CT [5]: clearly visualized
